In the supplement of paper PMC10307832:

Tests used:
Assay in all cases: relative viability (nuclei count vs DMSO), 5 days (fraction); higher = more cells survive
AZ628 + Linsitinib = compound: CC1=C(C=C(C=C1)NC(=O)C2=CC(=CC=C2)C(C)(C)C#N)NC3=CC4=C(C=C3)N=CN(C4=O)C [AZ628] + C[C@]1(O)C[C@@H](c2nc(-c3ccc4ccc(-c5ccccc5)nc4c3)c3c(N)nccn32)C1 [Linsitinib] (partner 1 µM)
In short: (§1)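 Lung cancer cell lines, seeded in 1536-well plates, were treated the following day by pin tool with a single drug or with five library-drug doses (not always all listed) in √10 steps on top of a fixed anchor-drug dose. Cells were fixed and nuclei stained in one step after 5 days, and nuclei were counted. Relative viability is the nuclei count for treated wells divided by that for vehicle wells, reported as medians of duplicate plates.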

QS11 + Bortezomib = compound: C1CC2=C(C1)C=C(C=C2)OC3=NC(=C4C(=N3)N(C=N4)CC5=CC=C(C=C5)C6=CC=CC=C6)N[C@@H](CC7=CC=CC=C7)CO [QS11] + CC(C)C[C@H](NC(=O)[C@H](Cc1ccccc1)NC(=O)c1cnccn1)B(O)O [Bortezomib] (partner 0.002 µM)
In short: as §1

QS11 + Palbociclib = compound: C1CC2=C(C1)C=C(C=C2)OC3=NC(=C4C(=N3)N(C=N4)CC5=CC=C(C=C5)C6=CC=CC=C6)N[C@@H](CC7=CC=CC=C7)CO [QS11] + CC(=O)c1c(C)c2cnc(Nc3ccc(N4CCNCC4)cn3)nc2n(C2CCCC2)c1=O [Palbociclib] (partner 0.5 µM)
In short: as §1

Darinaparsin + OSI-027 = compound: C[As](C)SC[C@H](NC(=O)CC[C@H](N)C(=O)O)C(=O)NCC(=O)O [Darinaparsin] + COc1cccc2cc(-c3nc([C@H]4CC[C@H](C(=O)O)CC4)n4ncnc(N)c34)[nH]c12 [OSI-027] (partner 0.5 µM)
In short: as §1

| Cell Line | relative viability (AZ628 + Linsitinib; first compound 0.08 µM) | relative viability (AZ628 + Linsitinib; first compound 0.253 µM) | relative viability (AZ628 + Linsitinib; first compound 0.8 µM) | relative viability (AZ628 + Linsitinib; first compound 2.53 µM) | relative viability (AZ628 + Linsitinib; first compound 8 µM) | relative viability (QS11 + Bortezomib; first compound 0.08 µM) | relative viability (QS11 + Bortezomib; first compound 0.253 µM) | relative viability (QS11 + Bortezomib; first compound 0.8 µM) | relative viability (QS11 + Bortezomib; first compound 2.53 µM) | relative viability (QS11 + Bortezomib; first compound 8 µM) | relative viability (QS11 + Palbociclib; first compound 0.08 µM) | relative viability (QS11 + Palbociclib; first compound 0.253 µM) | relative viability (QS11 + Palbociclib; first compound 0.8 µM) | relative viability (QS11 + Palbociclib; first compound 2.53 µM) | relative viability (QS11 + Palbociclib; first compound 8 µM) | relative viability (Darinaparsin + OSI-027; first compound 0.08 µM) | relative viability (Darinaparsin + OSI-027; first compound 2.53 µM) | relative viability (Darinaparsin + OSI-027; first compound 8 µM) | relative viability (Darinaparsin + OSI-027; first compound 0.8 µM) |
| --- | --- | --- | --- | --- | --- | --- | --- | --- | --- | --- | --- | --- | --- | --- | --- | --- | --- | --- | --- |
| NCI-H2347 | 0.719 | 0.928 | 0.741 | 0.792 | 0.639 | 1.11 | 1.19 | 0.757 | 0.997 | 1.04 | 0.375 | 0.476 | 0.414 | 0.4 | 0.354 | 0.398 | 0.424 | 0.407 |  |
| NCI-H2405 | 0.463 | 0.646 | 0.477 | 0.387 | 0.409 | 0.926 | 0.946 | 0.895 | 1.03 | 1.03 | 0.544 | 0.541 | 0.488 | 0.536 | 0.502 | 0.629 | 0.545 | 0.658 | 0.614 |
| NCI-H3122 | 0.931 | 0.83 | 0.686 | 0.701 | 0.388 | 1.03 | 1.1 | 0.67 | 1.07 | 0.864 | 0.171 | 0.225 |  | 0.188 | 0.18 | 1.21 | 0.95 | 1.14 | 1 |
| PC-3 [JPC-3] | 0.893 | 0.971 | 1.01 | 1.04 | 0.952 | 0.827 | 0.88 | 0.767 | 0.828 | 0.678 |  | 0.586 | 0.396 | 0.595 | 0.575 | 0.844 | 0.734 | 0.788 | 0.781 |
| PC-14 | 0.946 | 0.862 | 0.946 | 0.981 | 0.703 | 0.7 | 0.887 | 0.979 | 0.741 | 0.731 |  | 0.608 | 0.455 | 0.44 | 0.434 | 1.09 | 0.704 | 1.26 | 0.697 |
| RERF-LC-KJ | 0.799 | 0.874 | 0.841 | 0.855 | 0.7 | 1.05 | 1.1 | 0.956 | 0.932 | 0.941 | 1.08 | 0.999 | 0.724 | 0.895 | 0.874 | 0.592 | 0.527 | 0.596 | 0.574 |
| SK-LU-1 | 0.728 | 1 | 0.907 | 1.07 | 0.901 | 1.03 | 1.11 | 1.09 | 1.16 | 1.29 | 0.345 | 0.419 | 0.336 | 0.365 | 0.376 | 0.363 | 0.257 | 0.351 | 0.299 |
| SW 1573 | 0.599 | 0.725 | 0.661 | 0.632 | 0.412 | 0.957 | 1.07 | 0.971 | 1.12 | 0.837 | 0.388 | 0.35 | 0.339 | 0.223 | 0.161 | 0.736 | 0.611 | 0.87 | 0.627 |
| UMC-11 | 1.02 | 1.12 | 1.03 | 0.976 | 1.02 | 0.668 | 0.851 | 0.816 | 1.01 | 0.68 | 0.307 | 0.343 | 0.378 | 0.343 | 0.337 | 0.543 | 0.414 | 0.592 | 0.529 |
